Values of other authors in US8101633B2, “Preparation and utility of substituted imidazopyridine compounds with hypnotic effects” (Auspex Pharmaceuticals, Inc., priority 2006, dated 2012).

Tested on: cytochrome P450
Details: background statement

Cc1ccc(-c2nc3ccc(C)cn3c2CC(=O)N(C)C)cc1 [zolpidem, Zolpidem]
share of net intrinsic clearance accounted for by imidazopyridyl methyl group oxidation: ~12% | share of net intrinsic clearance accounted for by oxidation of the benzylic methyl group: approximately 84%
